Measured values: patent US20100234377A1 (priority 2007, published 2010)
pIC50: −log10 of the molar value. Read-outs that look alike come from different tables or passages of the source.

Assays:
[1] = biological target: T1, human Prostaglandin D Synthase (GST2) (Homo sapiens, UniProt O60760); assay: Homogeneous biochemical assay of human Prostaglandin D Synthase (GST2) based on its glutathion-S-transferase activity (GSH conjugation to monochlorobimane, fluorescence)
T1 construct: the open reading frame of human Prostaglandin D Synthase was amplified from cDNA; made in house; host or cells: E. coli TOP10F'
T1 sequence (O60760 whole entry): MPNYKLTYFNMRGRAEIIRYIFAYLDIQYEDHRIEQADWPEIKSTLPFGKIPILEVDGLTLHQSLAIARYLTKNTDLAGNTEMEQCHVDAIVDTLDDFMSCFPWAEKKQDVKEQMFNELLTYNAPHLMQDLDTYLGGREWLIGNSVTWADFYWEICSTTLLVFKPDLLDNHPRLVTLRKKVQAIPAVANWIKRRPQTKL
Method in brief: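 N-His-tagged human PGD synthase from E. coli, assayed via its GST activity: GSH conjugation to monochlorobimane in 50 mM MES/KOH pH 6.1, 0.7 mM GSH, 2 mM MgCl2. Compounds at final picomolar to triple-digit micromolar concentrations.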

[2] = Mouse microsomal metabolism assay; format: in vitro ADME; details: mouse hepatic microsomes, 37° C., phosphate buffer pH 7.4, NADPH regenerating system; for half-life: liver microsomes, read-out: Mouse t½
Method: Selected GST2 Inhibitors from Formula I Assessed in Mouse Microsomal Metabolism Assay
Selected GST2 inhibitors of General Formula (I) were screened in a mouse hepatic microsome assay to determine microsomal metabolism.
Test Articles were prepared in 50% acetonitrile.
Mouse hepatic microsomes supplied by BD GenTest Inc or an equivalent reputable supplier.
Test Articles are added to incubation plates containing phosphate buffer pH 7.4 and microsomes at a suitable protein concentration. Incubation plates are placed on a shaking water bath at 37° C. for 5 minutes pre-incubation. An aliquot of the reaction mixture is taken and added to acetonitrile (3:1). This is designated time […]. NADPH regenerating system in phosphate buffer pH 7.4 is added to initiate reactions. Aliquots from the incubation wells are taken at a number of time points and added to acetonitrile. Control incubations contained no microsomes or compounds with known microsomal stabilities. Samples were subject to centrifugation to remove denatured protein and the supernatants were analysed by LCMS.
Half lives were calculated from the log vs time transformed data according to the following equation: […]
Where λ is the slope of the linear regression line under first order (Test Article concentration <Km) conditions.

[3] = given beside the compound name in Examples 1 to 167, read-out: Potency Range (GST2 IC50)
[4] = Table 2, comparative examples, read-out: GST2 inhibition IC50

Compound	pIC50 [1, 3]	half-life [2] [min]	other results
4-(2-Fluoro-4-{[4-(3-fluoro-benzoyl)-piperazine-1-carbonyl]-amino}-phenyl)-piperazine-1-carboxylic acid isopropyl ester [Compound 50]	7.00 to 7.96	–	Mouse t½ [2]: >60 min
O=C(Nc1ccc(OC(F)(F)F)cc1)N1CCN(C(=O)c2cccc(F)n2)CC1 [Compound 21, 4-(6-Fluoro-pyridine-2-carbonyl)-piperazine-1-carboxylic acid (4-trifluoromethoxy-phenyl)-amide]	6.00 to 7.00	> 60	–
O=C(Nc1nc2cc(Cl)ccc2o1)N1CCN(C(=O)c2cccc(F)c2)CC1 [Compound 39, 4-(3-Fluoro-benzoyl)-piperazine-1-carboxylic acid (5-chloro-benzooxazol-2-yl)-amide]	6.00 to 7.00	> 60	–
CC(C)NC(=O)N1CCN(c2ccc(NC(=O)N3CCN(C(=O)c4cccc(F)c4)CC3)cc2F)CC1 [Compound 52, 4-(3-fluorobenzoyl)-N-{3-fluoro-4-[4-(isopropylcarbamoyl)piperazin-1-yl]phenyl}piperazine-1-carboxamide]	7.00 to 7.96	> 60	–
CN1CCN(c2ccc(NC(=O)N3CCN(C(=O)c4cccc(F)c4)CC3)cc2F)CC1 [Compound 60, 4-(3-Fluoro-benzoyl)-piperazine-1-carboxylic acid [3-fluoro-4-(4-methyl-piperazin-1-yl)-phenyl]-amide]	6.00 to 7.00	58.7	–
O=C(Nc1ccc(Cl)nc1)N1CCN(C(=O)c2cccc(F)c2)CC1 [Compound 63, 4-(3-Fluoro-benzoyl)-piperazine-1-carboxylic acid (6-chloro-pyridin-3-yl)-amide]	6.00 to 7.00	> 60	–
O=C(Nc1ccc(C(=O)N2CCOCC2)cc1)N1CCN(C(=O)c2cccc(F)c2)CC1 [Compound 101, 4-(3-Fluoro-benzoyl)-piperazine-1-carboxylic acid [4-(morpholine-4-carbonyl)-phenyl]-amide]	6.00 to 7.00	> 60	–
NC(=O)c1ccc(NC(=O)N2CCN(C(=O)c3cccc(F)c3)CC2)cc1 [Compound 105, 4-(3-Fluoro-benzoyl)-piperazine-1-carboxylic acid (4-carbamoyl-phenyl)-amide]	6.00 to 7.00	> 60	–
O=C(Nc1cccc(NC(=O)N2CCN(C(=O)c3cccc(F)c3)CC2)c1)c1ccc[n+]([O-])c1 [Compound 109, 4-(3-Fluoro-benzoyl)-piperazine-1-carboxylic acid {3-[(1-oxy-pyridine-3-carbonyl)-amino]-phenyl}-amide]	6.00 to 7.00	> 60	–
O=C(Nc1ccc(C(F)(F)F)cc1)N1CCN(C(=O)c2ccccc2)CC1 [Compound 164, 4-Benzoyl-piperazine-1-carboxylic acid (4-trifluoromethyl-phenyl)-amide]	7.00 to 7.96	–	–
O=C(Nc1ccc(C(F)(F)F)cc1)N1CCN(C(=O)c2cccc(Cl)c2)CC1 [Compound 165, 4-(3-Chloro-benzoyl)-piperazine-1-carboxylic acid (4-trifluoromethyl-phenyl)-amide]	6.00 to 7.00	–	–
O=C(Nc1cccc(Nc2ccccc2)c1)N1CCN(C(=O)c2cccc(F)c2)CC1 [Compound 166, 4-(3-Fluoro-benzoyl)-piperazine-1-carboxylic acid (3-phenylamino-phenyl)-amide]	6.00 to 7.00	–	–
O=C(Nc1cccc(Nc2ccc(F)cc2)c1)N1CCN(C(=O)c2cccc(F)c2)CC1 [Compound 167, 4-(3-Fluoro-benzoyl)-piperazine-1-carboxylic acid [3-(4-fluoro-phenylamino)-phenyl]-amide]	6.00 to 7.00	–	–
O=C(Nc1ccc(F)nc1)c1cccc(C(=O)N2CCN(C(=O)Nc3ccc(F)cc3)CC2)c1 [Compound XVIII, 4-[3-(6-Fluoro-pyridin-3-ylcarbamoyl)-benzoyl]-piperazine-1-carboxylic acid (4-fluoro-phenyl)-amide, reference compound]	–	–	pIC50 [1, 4]: 4.71
O=C(Nc1ccc(F)cc1)N1CCN(C(=O)c2cccc(NS(=O)(=O)c3ccccc3)c2)CC1 [Compound XX, 4-(3-Benzenesulfonylamino-benzoyl)-piperazine-1-carboxylic acid (4-fluoro-phenyl)-amide, reference compound]	–	–	pIC50 [1, 4]: 4.71
NC(=O)c1ccccc1C(=O)N1CCN(C(=O)Nc2ccc(F)cc2)CC1 [Compound XXI, 4-(2-Carbamoyl-benzoyl)-piperazine-1-carboxylic acid (4-fluoro-phenyl)-amide, reference compound]	–	–	pIC50 [1, 4]: 4.78
O=C(Nc1ccc(F)cc1)N1CCN(C(=O)c2ccccc2CO)CC1 [Compound XXIII, 4-(2-Hydroxymethyl-benzoyl)-piperazine-1-carboxylic acid (4-fluoro-phenyl)-amide]	–	–	pIC50 [1]: 4.79
COC(=O)c1ccccc1C(=O)N1CCN(C(=O)Nc2ccc(F)cc2)CC1 [XIII, 2-[4-(4-Fluoro-phenylcarbamoyl)-piperazine-1-carbonyl]-benzoic acid methyl ester, reference compound]	–	–	pIC50 [1, 4]: 4.55
O=C(Nc1ccc(F)cc1)N1CCN(C(=O)c2ccccc2Oc2ccccc2)CC1 [XIV, 4-(2-Phenoxy-benzoyl)-piperazine-1-carboxylic acid (4-fluoro-phenyl)-amide, reference compound]	–	–	pIC50 [1, 4]: 3.74

More lines, main results first:

pIC50 [1, 3]	half-life [2] [min]	Compound	other results
–	> 60	O=C(Nc1ccc(F)cc1)N1CCN(C(=O)c2cccc(F)n2)CC1 [XXIII, 4-(6-Fluoro-pyridine-2-carbonyl)-piperazine-1-carboxylic acid (4-fluoro-phenyl)-amide]	–
–	31.4	O=C(Nc1ccc(N2CCOCC2)nc1)N1CCN(Cc2cccc(F)c2)CC1 [XXIV, 4-(3-Fluoro-benzyl)-piperazine-1-carboxylic acid (6-morpholin-4-yl-pyridin-3-yl)-amide]	–
–	12.1	O=C(Nc1ccc(F)cc1)N1CCN(Cc2cccc3c2OC(F)(F)O3)CC1 [XXIX, 4-(2,2-Difluoro-benzo[1,3]dioxol-4-ylmethyl)-piperazine-1-carboxylic acid (4-fluoro-phenyl)-amide]	–
–	27.6	O=C(Nc1ccc(N2CCOCC2)nc1)N1CCN(Cc2ccccc2)CC1 [XXV, 4-Benzyl-piperazine-1-carboxylic acid (6-morpholin-4-yl-pyridin-3-yl)-amide]	–
–	21.9	O=C(Nc1ccc(F)cc1)N1CCN(Cc2ccccc2O)CC1 [XXVI, 4-(2-Hydroxy-benzyl)-piperazine-1-carboxylic acid (4-fluoro-phenyl)-amide]	–
–	20.9	O=C(Nc1ccc(N2CCNCC2)c(F)c1)N1CCN(Cc2cccc(F)n2)CC1 [XXVII, 4-(6-Fluoro-pyridin-2-ylmethyl)-piperazine-1-carboxylic acid (3-fluoro-4-piperazin-1-yl-phenyl)-amide]	–
–	15.5	O=C(Nc1ccc(N2CCOCC2)nc1)N1CCN(Cc2cc(F)cc(F)c2)CC1 [XXVIII, 4-(3,5-Difluoro-benzyl)-piperazine-1-carboxylic acid (6-morpholin-4-yl-pyridin-3-yl)-amide]	–
–	10.6	O=C(Nc1ccc(F)cc1)N1CCN(Cc2cccc(F)c2)CC1 [XXX, 4-(3-Fluoro-benzyl)-piperazine-1-carboxylic acid (4-fluoro-phenyl)-amide]	–
–	4.4	Cc1ccccc1CN1CCN(C(=O)Nc2ccc(F)cc2)CC1 [XXXI, 4-(2-Methyl-benzyl)-piperazine-1-carboxylic acid (4-fluoro-phenyl)-amide]	–
